From US8318743B2, “Medicament for the enhancement of cognitive function and neuroprotection” (Egis Gyogyszergyar Nyilvanosan Mukodo Reszvenytarsasag, priority 2006, dated 2012)
Marks after values point to notes of the source that are not given here.

What was measured:
[1] = system: male gerbils; assay: global cerebral ischemia model by bilateral carotid artery occlusion, hippocampal CA1 neuronal damage; assay type: in vivo, gerbil; details: for proportion of the neuronal damage in CA1 region of the hippocampus / Effect %: 0.1 mg/kg ip.; for CA 1 lesion: 0.1 mg/kg ip. 45 minutes after surgery, average score on scale 0-6, four days after 3 min bilateral carotid occlusion; for Effect %: CA1 lesion score versus control animals
Protocol: The neuroprotective effect of 4-chloro-5-{2-[4-(6-fluoro-1,2-benz[d]isoxazole-3-yl)piperidin-1-yl]ethyl-amino}-2-methyl-3-(2H)pyridazinone of the Formula (I) was tested in gerbils by global cerebral ischemia model by bilateral occlusion of the carotid artery and in rats by focal cerebral ischemia model via the permanent occlusion of the central cerebral artery. Risperidone[3-(2-(4-(6-fluoro-1,2-benz[d]isoxazole-3-yl)-1-piperidinyl)ethyl)-6,7,8,9-tetrahydro-2-methyl-4H-pyrido[1,2-a]pyrimidin-4-one] of the Formula (II) was used as reference compound.
The tests in the global cerebral ischemia model were performed in male gerbils weighing 50-80 g. During surgery, the animals were anaesthetized with ether, and the carotid arteries were set free in the paratracheal region by a ventral incision in the central region. The carotid arteries were separated from the vagosympatic nerve-trunk and were occluded for 3 minutes using artery forceps and subsequently released. The body temperature of the animals was checked during surgery and was kept in the normal range using an infrared lamp (37.5±0.5° C.). The test substance 4-chloro-5-{2-[4-(6-fluoro-1,2-benz[d]isoxazole-3-yl)piperidin-1-yl]ethyl-amino}-2-methyl-3-(2H)pyridazinone of the Formula (I) and the reference substance risperidone of the Formula (II) were administered in a dose of 0.1 mg/kg intraperitoneally 45 minutes after surgery.
Four days after surgery, animals were anaesthetised using pentobarbital-Na (60 mg/kg ip., 10 ml/kg) and the brains were perfused with saline thorough the left ventricle. The perfusion was continued for an additional 30 minutes using fixative solution (200 ml/animal). The fixative solution contained 0.1% of glutaraldehyde, 4% of paraformaldehyde and 0.2% of picric acid in 0.1 M phosphate buffer (pH 7.4). After perfusion, the brains were removed from the skulls and were stored in the above-mentioned fixative solution for at least one week at 4° C. in a refrigerator.
The cerebral part containing the dorsal hippocampus has been dissected into 60-μm thick coronal sections using a freezing microtome. The sections were washed four times by shaking for 30 minutes in 0.1 M phosphate buffer (pH 7.4) during which the cerebral sections were floating in the washing solution. Subsequently the cerebral sections were stained using silver impregnation. The staining by the silver impregnation method comprises (a) immersing the sample into a preparatory solution twice for 5 minutes (the preparatory solution comprises aqueous 2% sodium hydroxide and 0.875% ammonium hydroxide solution); (b) immersing the sample into the impregnating solution for 10 minutes (solution of 0.875% ammonium hydroxide and 0.5% silver nitrate in water), (c) washing the sample twice for 2 minutes and finally for one minute in the solution of 0.5% of sodium carbonate and 0.01% ammonium nitrate in aqueous 29.1% ethanol); (d) development for one minute by immersing the section into a development solution (1-1.5% formaldehyde and 0.01% ammonium nitrate in 9.9% ethanol), (e) fixation three times for three minutes each in 0.5% acetic acid solution. The stained cerebral sections were placed into 0.1 M phosphate buffer (pH 7.4) and subsequently chromic gelatine, mounted on slides and dehydrated (dried), treated with xylene for 10 minutes and the cover plates were attached using DPX histological adhesive (Fluka).
The bilateral neuronal damage in the CAl region of the hippocampus have been evaluated on a six-score scale as follows: 0—no damage observed; 1—0-10% neuronal damage; 2—10-30% neuronal damage; 3—30-50% neuronal damage; 4—50-70% neuronal damage; 5—70-90% neuronal damage; 6—90-100% neuronal damage. The average scores measured in the treated group were expressed in the percentage of the average scores observed in the case of the control animals. The statistical evaluation was carried out by non-parametric Mann-Whitney U-test.

[2] = system: male Wistar rats; assay: passive avoidance test (step-through); assay type: in vivo, rat; details: for effect on memory in passive avoidance: 0.005 mg/kg p.o.
Protocol: The passive avoidance tests were carried out in male Wistar rats weighing 200 to 220 g (Charles River, Budapest). The experimental animals were kept in a room having a circadian light-dark periods of 12-12 hours. The light was switched on at 6:00 am. The relative humidity of the room was 60±10%.
The tests were carried out in a so-called step-through type apparatus with five channels which is suitable for testing of passive avoidance learning.
The apparatus comprises two plexiglass boxes of 20×20×16 cm. One of the boxes is clear, the other one is non-transparent, black-painted. There exists a separating wall between the boxes having an opening of 7.5×8 cm. The opening can be opened or closed by a computer-controlled shutter door. The transition of the rat from one box into the other is detected by two parallel photocell rows and the door is automatically shut after the transition of the animal. The floor of the black-painted box consists of stainless steel rods equipped with an electrical circuit suitable for the delivery of an electric shock. There is a 10-W bulb above the door at the light (transparent) side of the apparatus.
The tests were carried out on two subsequent days with a 24-hour time difference.
The first part of the test is the so-called acquisition period, wherein the animal is able to gain specific information characteristic to the situation (upon entry into the dark box, an electric shock is delivered). The second part of the test is the so-called retention period. In this stage, the ability of the animal to remember the information which was collected in the first part is tested (upon entry into the dark part, an electric shock will be delivered, therefore it is less traumatic to stay in the light compartment).
On the first day of the testing (acquisition period), the numbered animals are placed into the clear compartment of the apparatus while the shutter door is closed. After 30 seconds, the door is opened and the animal could freely enter the dark box. At the same time, the clock for the measurement of the transition latency was started. The transition latency is the period of time which elapses between the opening of the shutter door and the transition of the animal from the light compartment into the dark one. When the animal entered the dark box, the clock measuring the latency is stopped. 3 seconds after the entry into the dark compartment, an electric shock of 0.4 mA is delivered for 10 seconds to the animals in the form of a paw shock. Animals belonging to the absolute control groups were not delivered a paw shock. After the electric shock, the animals were immediately removed from the apparatus. A 180-sec period was available for the animals to enter the dark compartment. […] This is the essence of acquisition.
During the second-day test (retention) after 24 hours, the animals were placed into the apparatus again. The subsequent part of the procedure was identical to that performed on the first day with the only difference that except for one group, no electric shock was delivered to the animals. Similarly to the first day, 180 sec was provided for the animals to enter the dark box.
During the tests directed to the determination of the effect of 4-chloro-5-{2-[4-(6-fluoro-1,2-benz[d]isoxazole-3-yl)piperidin-1-yl]ethyl-amino}-2-methyl-3-(2H)pyridazinone of the Formula (I), the experimental animals were treated with the test substance and the reference substance or with vehicle (0.4% methylcellulose) on the second day, 60 minutes before placing the animals into the apparatus. The treatment was carried out orally at a dose of 0.005 mg/kg in a volume of 5 ml/kg.
The statistical evaluation was carried out with multiple way variance analysis. The differences between groups were analyzed by Duncan-test.

[3] = system: rats; assay: object recognition test; assay type: in vivo, rat
From the text: The object recognition test in rats is based on the observation that when animals are encountered with unknown environment, they scour around and discover the available area. They act similarly in case of unknown objects arranged within their area.
In the present experimental arrangement, one day prior to the actual testing day, animals are placed in a box where they have two minutes to get acquainted with the surroundings. On the first day of the experiment, two identical objects (in the present arrangement, a plastic rinse bottle and a glass bottle) are placed in the box and the length of the period is determined during which the animals spend time while examining the two objects. The length of test period is 4-5 minutes. The difference between the length of the time periods spent with the examination of each object is the so-called discrimination index.
On the second day (24 hours after the first testing period) of the experiment, two different objects are placed in the box, among which one is known for the animals and the other is unknown.
In the case when a memory-enhancing drug is administered to the animals on the first day (e.g. orally, 60 minutes prior to testing), the animals are able to recall the already known objects better and the discrimination index is increased in favour of the unknown object.

[4] = 0.4 mA/10 sec electric shock + treatment 0.005 mg/kg p.o. 60 minutes before test
[5] = treatment 0.005 mg/kg p.o. without electric shock

| Structure (SMILES) | proportion of the neuronal damage in CA1 region of the hippocampus [1] | CA 1 lesion [1] | Effect % [1] [%] | effect on memory in passive avoidance [2] | Transition latency First Day sec ± SE [2, 4] | Transition latency First Day sec ± SE [2, 5] [s] | memory functions in object recognition ([3]; 0.01 mg/kg) | Discrimination index(s) Day 1 ([3]; 0.01 mg/kg p.o., Day 1) [s] | Discrimination index(s) Day 2 ([3]; 0.01 mg/kg p.o., Day 2 (24 hours after first testing)) [s] |
| --- | --- | --- | --- | --- | --- | --- | --- | --- | --- |
| Cn1ncc(NCCN2CCC(c3noc4cc(F)ccc34)CC2)c(Cl)c1=O [Formula (I), 4-chloro-5-{2-[4-(6-fluoro-1,2-benz[d]isoxazole-3-yl)piperidine-1-yl]ethyl-amino}-2-methyl-3-(2H)pyridazinone] | significantly decreased | 2.80** | −46 | significantly improved the memory | 155.9 ± 15.5^++ sec | 21.2 ± 8.8 | significantly enhanced | 0.4 ± 0.8 | 10.9 ± 1.4 |
| Cc1nc2n(c(=O)c1CCN1CCC(c3noc4cc(F)ccc34)CC1)CCCC2 [Risperidone, 3-(2-(4-(6-fluoro-1,2-benz[d]isoxazole-3-yl)-1-piperidinyl)-ethyl)-6,7,8,9-tetrahydro-2-methyl-4H-pyrido[1,2-a]pyrimidin-4-one, reference compound] | ineffective | 4.67 | −2 | did not exhibit any effect | 85.5 ± 22.0 s | 36.1 ± 15.9 | – | – | – |
